The source of these data is ChEMBL document CHEMBL3797040, “Withanolides derived from Physalis peruviana (Poha) with potential anti-inflammatory activity” (Bioorg Med Chem Lett, 2016).

As usually defined, the inhibition is the drop in the measured response relative to a control, in per cent. Low values mean a weak effect, high ones a strong effect. One may read the IC50 as the concentration that gives 50% inhibition.

Data set [1] can be described thus: Toxicity against HEK293 cells assessed as cell survival at 50 uM. The format is cell-based. Particulars: human, read-out: Survival.
The subject of the next data set is HEK293. The data set can be described thus: Inhibition of TNFalpha-activated nuclear factor-kappa B activity (unknown origin) expressed in HEK293 cells at 50 uM incubated for 6 hrs by luciferase reporter gene based assay. Particulars: Homo sapiens. The format is cell-based.
Data set [2] can be described thus: Inhibition of TNFalpha-activated nuclear factor-kappa B activity (unknown origin) expressed in HEK293 cells incubated for 6 hrs by luciferase reporter gene based assay. Format: cell-based. Particulars: Homo sapiens, HEK293, 6 h. A general note: In a reporter assay the amount or activity of a reporter protein is the signal.
The test system of data set [3] is RAW264.7. Briefly: Inhibition of lipopolysaccharide-induced nitric oxide production in mouse RAW264.7 cells at 50 uM pre-incubated for 30 mins before LPS stimulation for 20 hrs by Griess reagent based assay. The format is functional. A general note: Griess reagent forms a coloured azo dye with nitrite.
Data set [4] deals with RAW264.7. The data set can be described thus: Inhibition of lipopolysaccharide-induced nitric oxide production in mouse RAW264.7 cells pre-incubated for 30 mins before LPS stimulation for 20 hrs by Griess reagent based assay. Format: functional, cell-based.
Data set [5] in a line: Toxicity against mouse RAW264.7 cells assessed as cell survival at 50 uM by SRB assay. The format is cell-based. Conditions: read-out: Survival. For orientation: The SRB assay estimates cell density from bound dye.

As to `CC(=O)OC1C[C@H](O)CC2=CC[C@H]3[C@@H]4CC[C@H]([C@@](C)(O)[C@@H](O)C[C@@H]5COC(=O)[C@@H]5C)[C@@]4(C)CC[C@@H]3[C@]21C` (some centres undefined), the viability at 50 µM in data set [1] came out at 36.5%; in data set [5] it was 95.3%. Moreover, the inhibition in the data set with HEK293 stood at 56.1%. Moreover, the IC50 in data set [2] turned out to be 1.1 µM; with RAW264.7 [4], 11.8 µM. In the data set on RAW264.7 [3], this compound registered an inhibition at 50 µM of 84.2%.

Turning to `CC1=C(CO)C[C@H]([C@](C)(O)[C@]2(O)CC[C@@]3(O)[C@@H]4C[C@@H](O)[C@@]5(O)CC=CC(=O)[C@]5(C)[C@H]4CC[C@]23C)OC1=O`, the viability at 50 µM in data set [1] came to 81.6%; in data set [5], 100%. Further, the inhibition in the data set on HEK293 is 41%. In the data set with RAW264.7 [3], this compound came in with an inhibition at 50 µM of 7.4%.

As to `CC1=C(C)C(=O)O[C@@H]([C@@](C)(O)[C@]2(O)CC[C@@]3(O)[C@@H]4C[C@@H](O)[C@@]5(O)CC=CC(=O)[C@]5(C)[C@H]4CC[C@]23C)C1`, the viability at 50 µM in data set [1] worked out at 89.6%; in data set [5] it was 84.1%. In addition, in the data set on HEK293, the inhibition is 65.8%. For the same compound, in data set [2], the IC50 turned out to be 31.2 µM. Further, at 50 µM the inhibition with RAW264.7 [3] was 26.4%.

As to `CC1=C(C)C(=O)O[C@@H]([C@](C)(O)[C@]2(O)CC[C@@]3(O)[C@@H]4C[C@H]5O[C@]56[C@@H](O)[C@@H](O)CC(=O)[C@]6(C)[C@H]4CC[C@]23C)C1`, the viability at 50 µM worked out at 97.1% in data set [1] and 100% in data set [5]. In addition, the inhibition in the data set with HEK293 worked out at 54.1%. This compound registered an inhibition at 50 µM in the data set on RAW264.7 [3] of 86%. In the data set with RAW264.7 [4], this compound came in with an IC50 of 7.8 µM.

Consider `CC(=O)OC1C[C@H](O)CC2=CC[C@H]3[C@@H]4CC[C@H]([C@@](C)(O)[C@@H](O)C[C@@H]5COC(=O)[C@@]5(C)O)[C@@]4(C)CC[C@@H]3[C@]21C` (some centres undefined), for which the figures for the viability at 50 µM in data set [1] and in data set [5] were 73.3% and 100%, respectively. The compound further had an inhibition with HEK293 of 64.4%. For the same compound, in data set [2], the IC50 is 2.1 µM. In the data set on RAW264.7 [3], this compound came in with an inhibition at 50 µM of 3.7%.

On to `CNC(=N)NCCC[C@H](N)C(=O)O` [TILARGININE], for which, in the data set on RAW264.7 [4], half-maximal inhibition (IC50) required 23.5 µM.

Regarding `CC1=C(C)C(=O)O[C@@H]([C@](C)(O)[C@]2(O)CC[C@@]3(O)[C@@H]4[C@@H](O)[C@@H](O)[C@@]5(O)CC=CC(=O)[C@]5(C)[C@H]4CC[C@]23C)C1`, the viability at 50 µM in data set [1] is 98.4%; in data set [5], 90.4%. In addition, the inhibition in the data set on HEK293 amounted to 66.9%. Moreover, the IC50 in data set [2] came to 24.6 µM; in the data set with RAW264.7 [4], 44.6 µM. The compound further returned an inhibition at 50 µM in the data set on RAW264.7 [3] of 58.3%.

Consider `CC1=C(C)C(=O)O[C@@H]([C@](C)(O)[C@]2(O)C[C@H](O)[C@@]3(O)[C@@H]4C[C@H](O)[C@@]5(O)CCCC(=O)[C@]5(C)[C@H]4CC[C@@]32C)C1`, for which the viability at 50 µM in data set [1] came to 83.9%; in data set [5] it was 100%. In the data set on HEK293, this compound returned an inhibition of 60.4%. In addition, in data set [2], the IC50 amounted to 10.4 µM. Further, testing at 50 µM with RAW264.7 [3] gave an inhibition of 47.7%.

For `CC1=C(C)C(=O)O[C@@H]([C@](C)(O)[C@]2(O)CC[C@@]3(O)[C@@H]4C[C@H]5O[C@]56[C@@H](O)C=CC(=O)[C@]6(C)[C@H]4CC[C@]23C)C1`, the viability at 50 µM in data set [1] came out at 88.6%; in data set [5], 50.1%. Moreover, the inhibition in the data set on HEK293 is 99.5%. Besides, the IC50 in data set [2] came to 0.04 µM; with RAW264.7 [4], 0.32 µM. In addition, in the data set with RAW264.7 [3], the inhibition at 50 µM was found to be 99.4%.

For the compound `CC1=C(C)C(=O)O[C@@H]([C@](C)(O)[C@]2(O)CC[C@@]3(O)[C@@H]4C[C@H](O)C5=CC=CC(=O)[C@]5(C)[C@H]4CC[C@]23C)C1`, the results for the viability at 50 µM in data set [1] and in data set [5] were 100% and 79.3%, respectively. The same compound gave an inhibition with HEK293 of 85%. The IC50 in data set [2] worked out at 5.6 µM; in the data set with RAW264.7 [4] it was 2.4 µM. In the data set on RAW264.7 [3], this compound returned an inhibition at 50 µM of 99.2%.

`CC1=C(C)C(=O)O[C@@H]([C@](C)(O)C2=CC[C@@]3(O)[C@@H]4C[C@H]5O[C@]56[C@@H](O)CCC(=O)[C@]6(C)[C@H]4CC[C@]23C)C1`: the viability at 50 µM was 81.9% in data set [1] and 100% in data set [5]. Also, the inhibition in the data set with HEK293 came out at 43.7%. At 50 µM the inhibition in the data set with RAW264.7 [3] was 64.7%. In addition, in the data set on RAW264.7 [4], the IC50 amounted to 14.6 µM.
